Experimental data as given in patent US8092816B2, “Insecticidal compositions for control of general household pests” (priority 2004, dated 2012).

Tests used:
Red Imported Fire Ant = test: Example 6: red imported fire ant knockdown and mortality, bifenthrin and imidacloprid (higher rates); type: in vivo, Solenopsis invicta
Description: (§1) The following examples further illustrate the present invention, but, of course, should not be construed as in any way limiting its scope. The examples set forth certain biological data illustrating the efficacy of the compositions of the present invention in controlling general household pests. Each example embodies a separate test wherein the pests were randomly selected from a population at a random age. As a result, from example to example, the ages of the pests can be very different. This age difference potentially translates to different baselines for each example. Therefore, data should only be compared within the example and not from example to example due to the differences in age of the pests from example to example. Unless otherwise indicated, all parts, percentages, and the like are by weight. The spray chamber used in the examples was approximately 76 inches tall, 73 inches long and 31 inches deep with an adjustable shelf (approximately 22 inches deep) and a movable spray nozzle. The spray chambers were calibrated to deliver a volume of approximately 1 gallon of liquid per 1000 square feet of area at about 14 pounds per square inch of pressure. A DeVilbiss hand held sprayer (Atomizer model 152) manufactured by DeVilbiss located in Glendale Heights, Ill. was used in testing house flies and mosquitoes. The DeVilbiss was used to apply approximately 3-5 milliliters of product at about 10 pounds per square inch.
The compositions of the present invention were tested for red imported fire ant activity in the following manner:
(§2) Test compositions made up of TALSTARONE® MULTI-INSECTICIDE and a wettable powder of imidacloprid (MERIT) in distilled water were prepared that provided appropriate rates of application of combinations of bifenthrin and imidacloprid, as well as bifenthrin and imidacloprid alone.
The spray chamber was then calibrated to deliver the treatment solution at the desired volume and pressure over the desired area on the chamber shelf. Spray chamber shelf height was adjusted to approximately 18 inches from the spray tip. The shelf was then covered with aluminum foil and the center of the shelf from front-to-back and end-to-end was determined. The red imported file ants to be treated were collected and placed in screened 16 oz paper cups. The paper cups were placed onto the aluminum foil on the spray chamber shelf. The sprayer was activated and the test compound was applied to each paper cup interior. Red imported fire ant knockdown and mortality were measured.

American cockroach = test: Example 3: American cockroach knockdown and mortality, bifenthrin and imidacloprid; type: in vivo
Description: as §1
The compositions of the present invention were tested for American cockroach activity in the following manner:
as §2
(§3) The spray chamber was then calibrated to deliver the treatment solution at the desired volume and pressure over the desired area on the chamber shelf. Spray chamber shelf height was adjusted to approximately 18 inches from the spray tip. The shelf was then covered with aluminum foil and the center of the shelf from front-to-back and end-to-end was determined. A desired number of 4.0″ sieve circles were marked on the aluminum foil with a permanent marker. The inside of a desired number of PVC rings were coated with a petroleum jelly/mineral oil mixture (1:2 ratio). The PVC rings were place on the sieve circles. 10 male American cockroaches were placed inside each PVC ring. The sprayer was activated and the test compound was applied to each PVC ring interior. American cockroach knockdown and mortality were measured.

Oriental cockroach = test: Example 10: Oriental cockroach knockdown and mortality, bifenthrin and thiamethoxam; type: in vivo
Description: as §1
The compositions of the present invention were tested for Oriental cockroach activity in the following manner:
Test compositions made up of TALSTARONE® MULTI-INSECTICIDE and a water dispersible granular of thiamethoxam (CENTRIC) in distilled water were prepared that provided appropriate rates of application of combinations of bifenthrin and thiamethoxam, as well as bifenthrin and thiamethoxam alone.
as §3, with “Oriental” for “American”

German cockroach = test: Example 1: German cockroach mortality, spray of bifenthrin and imidacloprid combinations; type: in vivo
Description: as §1
The compositions of the present invention were tested for German cockroach activity in the following manner:
as §2
as §3, with “male German” for “male American”, “interior. German” for “interior. American”, “cockroach” for “cockroach knockdown and”, “mortality was” for “mortality were”

In the case of Cc1c(COC(=O)[C@@H]2[C@H](/C=C(\Cl)C(F)(F)F)C2(C)C)cccc1-c1ccccc1 (racemic) [A, 2-methylbiphenyl-3-ylmethyl (Z)-(1RS)-cis-3-(2-chloro-3,3,3-trifluoroprop-1-enyl)-2,2-dimethylcyclopropanecarboxylate], the “Knockdown Rate @ 5 minute” value (Red Imported Fire Ant; 200 PPM, 0.02% by weight) is reported as 0%, the “Knockdown Rate @ 10 minute” value (Red Imported Fire Ant; 200 PPM, 0.02% by weight) is reported as 0% and the “Knockdown Rate @ 15 minute” value (Red Imported Fire Ant; 200 PPM, 0.02% by weight) is reported as 70%. The “Knockdown Rate @ 30 minutes” value (Red Imported Fire Ant; 200 PPM, 0.02% by weight) was 88%, the “Mortality @ 120 minutes” value (Red Imported Fire Ant; 200 PPM, 0.02% by weight) was 100% and the “Mortality Rate @ 60 minutes” value (Red Imported Fire Ant; 200 PPM, 0.02% by weight) was 100%. The “Mortality Rate @ 4 hours” value (Red Imported Fire Ant; 200 PPM, 0.02% by weight) was 100%, the “Knockdown Rate @ 5 minute” value (Red Imported Fire Ant; 600 PPM, 0.06% by weight) was 0% and the “Knockdown Rate @ 10 minute” value (Red Imported Fire Ant; 600 PPM, 0.06% by weight) was 40%. The “Knockdown Rate @ 15 minute” value (Red Imported Fire Ant; 600 PPM, 0.06% by weight) was 88%, the “Knockdown Rate @ 30 minutes” value (Red Imported Fire Ant; 600 PPM, 0.06% by weight) was 100% and the “Mortality @ 120 minutes” value (Red Imported Fire Ant; 600 PPM, 0.06% by weight) was 100%. For the same molecule, the “Mortality Rate @ 60 minutes” value (Red Imported Fire Ant; 600 PPM, 0.06% by weight) was 100%, the “Mortality Rate @ 4 hours” value (Red Imported Fire Ant; 600 PPM, 0.06% by weight) was 100% and the “Knockdown Rate @ 15 minute” value (American cockroach; 10 PPM, 0.001% by weight) was 0%. The “Knockdown Rate @ 30 minute” value (American cockroach; 10 PPM, 0.001% by weight) was 0%, the “Mortality Rate @ 60 minutes” value (American cockroach; 10 PPM, 0.001% by weight) was 0% and the “Mortality Rate @ 120 minutes” value (American cockroach; 10 PPM, 0.001% by weight) was 0%. The “Mortality Rate @ 4 hours” value (American cockroach; 10 PPM, 0.001% by weight) was 5%, the “Mortality Rate @ 1 day” value (American cockroach; 10 PPM, 0.001% by weight) was 15% and the “Mortality Rate @ 2 days” value (American cockroach; 10 PPM, 0.001% by weight) was 25%. The “Knockdown Rate @ 15 minute” value (American cockroach; 50 PPM, 0.005% by weight) was 0%, the “Knockdown Rate @ 30 minute” value (American cockroach; 50 PPM, 0.005% by weight) was 0% and the “Mortality Rate @ 60 minutes” value (American cockroach; 50 PPM, 0.005% by weight) was 5%. The “Mortality Rate @ 120 minutes” value (American cockroach; 50 PPM, 0.005% by weight) was 5%, the “Mortality Rate @ 4 hours” value (American cockroach; 50 PPM, 0.005% by weight) was 10% and the “Mortality Rate @ 1 day” value (American cockroach; 50 PPM, 0.005% by weight) was 65%. For the same molecule, the “Mortality Rate @ 2 days” value (American cockroach; 50 PPM, 0.005% by weight) was 70%, the “Knockdown Rate @ 15 minute” value (Oriental cockroach; 10 PPM, 0.001% by weight) was 0% and the “Knockdown Rate @ 30 minute” value (Oriental cockroach; 10 PPM, 0.001% by weight) was 0%. For the same molecule, the “Mortality Rate @ 60 minutes” value (Oriental cockroach; 10 PPM, 0.001% by weight) was 0%, the “Mortality Rate @ 120 minutes” value (Oriental cockroach; 10 PPM, 0.001% by weight) was 0% and the “Mortality Rate @ 4 hours” value (Oriental cockroach; 10 PPM, 0.001% by weight) was 0%. For the same molecule, the “Mortality Rate @ 1 day” value (Oriental cockroach; 10 PPM, 0.001% by weight) was 0%, the “Knockdown Rate @ 15 minute” value (Oriental cockroach; 50 PPM, 0.005% by weight) was 0% and the “Knockdown Rate @ 30 minute” value (Oriental cockroach; 50 PPM, 0.005% by weight) was 0%. For the same molecule, the “Mortality Rate @ 60 minutes” value (Oriental cockroach; 50 PPM, 0.005% by weight) was 0%, the “Mortality Rate @ 120 minutes” value (Oriental cockroach; 50 PPM, 0.005% by weight) was 0% and the “Mortality Rate @ 4 hours” value (Oriental cockroach; 50 PPM, 0.005% by weight) was 0%. The “Mortality Rate @ 1 day” value (Oriental cockroach; 50 PPM, 0.005% by weight) was 45%, the “Mortality Rate @ 60 minutes” value (German cockroach; 10 PPM, 0.001% by weight) was 3% and the “Mortality Rate @ 120 minutes” value (German cockroach; 10 PPM, 0.001% by weight) was 33%. For the same molecule, the “Mortality Rate @ 1 day” value (German cockroach; 10 PPM, 0.001% by weight) was 33%, the “Mortality Rate @ 2 days” value (German cockroach; 10 PPM, 0.001% by weight) was 60% and the “Mortality Rate @ 60 minutes” value (German cockroach; 50 PPM, 0.005% by weight) was 30%. For the same molecule, the “Mortality Rate @ 120 minutes” value (German cockroach; 50 PPM, 0.005% by weight) was 48%, the “Mortality Rate @ 1 day” value (German cockroach; 50 PPM, 0.005% by weight) was 58% and the “Mortality Rate @ 2 days” value (German cockroach; 50 PPM, 0.005% by weight) was 100%.
